# Values quoted from earlier work as cited in patent US11419835B2, “Method of treatment and prevention of bacterial vaginosis” (EVOFEM, INC., priority 2016, dated 2022).
# Test system: HIV
# Conditions: compared with D or racemic lactic acid
smiles,measurement,value
"C[C@H](O)C(=O)O [L-lactic acid, L-(+)-lactic acid]",potency in inactivating HIV,more potent in inactivating HIV than D or racemic lactic acid
